Measured values taken from patent US12338484B2, “FRET biosensor for detecting and reporting NAD+/NADH ratio changes” (Sartorius BioAnalytical Instruments, Inc., priority 2022, dated 2025).

Test: Performance of initial constructs under dual-excitation FRET signal collection mode
Format: biochemical
Description: Constructs #10 and #14 in Table 3 were used to generate protein libraries. […] This is evidenced by the fact that all clones chosen from the libraries to proceed with have in vitro a substantial increase in signal window, compared to the original template protein (constructs #10 or #14). These increases are also roughly similar fold-wise between the numbers obtained in bacterial lysate screening and in the process of in vitro characterization.

Rex(A)-cpmEGFP(173/174)-Rex(B)-mKOk [Construct #12]
Performance under dual-excitation FRET signal collection mode: poor performance
